BindingDB's records for doi:10.7270/Q2BV7F7H (Burnham Center For Chemical Genomics, 2012)
“And” between values parts separate entries of the source, which are not always exact repeats. Equal entries are not always repeated.

Biological target: Probable nicotinate-nucleotide adenylyltransferase (Staphylococcus aureus (strain N315), UniProt P65502)
Sequence (P65502 whole entry): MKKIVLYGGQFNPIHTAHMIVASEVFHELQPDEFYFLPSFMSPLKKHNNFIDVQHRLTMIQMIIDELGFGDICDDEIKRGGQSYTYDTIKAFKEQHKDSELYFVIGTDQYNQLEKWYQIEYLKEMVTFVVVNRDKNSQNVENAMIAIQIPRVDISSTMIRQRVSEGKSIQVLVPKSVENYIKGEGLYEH

In order of rising IC50:
1. Nc1ccccc1C(=O)NNC(=O)C(=O)CC(=O)c1ccccc1 [SMR000427706]  12 µM
2. CC(=NNC(=O)c1cccc(N=NC(C)c2ccco2)c1)c1ccco1 (centres undefined) [N-[1-(2-furanyl)ethylideneamino]-3-[2-[1-(2-furanyl)ethylidene]hydrazinyl]benzamide]  14.8 µM
3. Cc1ccc(-n2[nH]c(C)c(C(c3cccc(O)c3)c3c(C)[nH]n(-c4ccc(C)c(C)c4)c3=O)c2=O)cc1C [2-(3,4-dimethylphenyl)-4-[[1-(3,4-dimethylphenyl)-5-hydroxy-3-methyl-1H-pyrazol-4-yl](3-hydroxyphenyl)methyl]-5-methyl-2,4-dihydro-3H-pyrazol-3-one]  15.1 µM
4. CCOc1ccc(CN=Nc2ccc(S(=O)(=O)Nc3ccccc3C(=O)O)cc2[N+](=O)[O-])cc1  15.6 µM
5. N#CC1C(=S)N=C(N)C(c2nc(-c3ccccc3)cs2)C12CCCC2 (centres undefined) [7-amino-9-mercapto-6-(4-phenyl-2-thiazolyl)-8-azaspiro[4.5]deca-7,9-diene-10-carbonitrile]  19.1 µM
6. Cc1[nH]n(-c2ccc(Cl)cc2)c(=O)c1C(c1ccccc1O)c1c(C)[nH]n(-c2ccc(Cl)cc2)c1=O [SMR000171531]  21.1 µM
7. N#CC1C(=S)N=C(N)C(c2nc(-c3ccccc3)cs2)C12CCCCC2 (centres undefined) [2-amino-4-mercapto-1-(4-phenyl-2-thiazolyl)-3-azaspiro[5.5]undeca-2,4-diene-5-carbonitrile]  23.2 µM
8. Cc1cccc(C)c1Nc1nnc(SCC(=O)C(C#N)c2nc3ccccc3[nH]2)s1 (centres undefined) [MLS000392242]  25.2 µM
9. COc1cccc(OCc2cc(CN=Nc3ccc(C(=O)O)cc3)ccc2OC)c1 [SMR000415960]  25.5 µM
10. O=C(O)Cc1sc(N=NCc2ccccc2)nc1-c1ccccc1  27.7 µM
11. Cc1cc(N2C(=O)C(=O)C(C(=O)c3ccc(C)o3)C2c2ccc(OCc3ccccc3)cc2)no1 (centres undefined) [3-(5-methylfuran-2-yl)carbonyl-1-(5-methyl-1,2-oxazol-3-yl)-4-oxidanyl-2-(4-phenylmethoxyphenyl)-2H-pyrrol-5-one]  28.9 µM
12. CCc1nnc(NS(=O)(=O)c2ccc(N=CCC(=O)c3ccc4ccccc4c3)cc2)s1 [N-(5-Ethyl-[1,3,4]thiadiazol-2-yl)-4-(3-naphthalen-2-yl-3-oxo-propenylamino)-benzenesulfonamide]  29.7 µM
13. C#CCN(C[C@@H]1c2c(c(O)n(-c3ccccc3)c2O)C[C@@H](OC(=O)Nc2cccs2)[C@H]1OC(=O)Nc1cccs1)S(=O)(=O)c1ccc(C)cc1 [[(3aR,5R,6S,7S,7aS)-7-[[(4-methylphenyl)sulfonyl-prop-2-ynyl-amino]methyl]-1,3-bis(oxidanylidene)-2-phenyl-6-(thiophen-2-ylcarbamoyloxy)-3a,4,5,6,7,7a-hexahydroisoindol-5-yl] N-thiophen-2-ylcarbamate]  34.5 µM
14. CCOC(=O)c1ccccc1-n1c(O)c2c(c1O)C(C=Cc1ccccc1)c1sc(=O)[nH]c1S2 (centres undefined) [ethyl 2-[2,5,7-trioxo-8-[(E)-2-phenylethenyl]-3,4a,7a,8-tetrahydropyrrolo[2,3]thiopyrano[4,5-b][1,3]thiazol-6-yl]benzoate]  45.9 µM
15. C1=NC2CCCC2C(N2CCCC2)=C1 (centres undefined)  50 µM
16. O=C1C(=O)N(c2nc3ccc(Cl)cc3s2)C(c2ccco2)C1C(=O)c1ccco1 (centres undefined)  56.8 µM
17. Cc1ccc(-n2c(O)cc(N(CCc3ccccc3)C(=S)Nc3ccc(N(C)C)cc3)c2O)cc1 [SMR000159829]  77.7 µM
18. Cc1ccccc1COc1ccc(C(=O)C2C(=O)C(=O)N(CCCn3ccnc3)C2c2ccco2)cc1 (centres undefined)  80 µM

For `Cc1ccc(Nc2nnc(SCC(=O)C(C#N)c3nc4ccccc4[nH]3)s2)c(C)c1` (centres undefined) [2-(1,3-dihydrobenzimidazol-2-ylidene)-4-[[5-(2,4-dimethylanilino)-1,3,4-thiadiazol-2-yl]thio]-3-oxobutanenitrile], the IC50 was 26.7 µM and 21.4 µM.
